# pIC50: −log10 of the molar value. Read-outs that look alike come from different tables or passages of the source.
# Tests used:
# [1] = Hematology of treated SOD1G93A mice; format: in vivo, mouse; settings: 40 mg/kg/day s.c. pump
# Protocol: (§1) All hematology and most serum clinical chemistry analyses were carried out by IDEXX Laboratories, Germany. The neurofilament light chain levels in serum were determined by PBL Assay Science (USA) using the Simoa NF-light Advantage Kit (Quanterix Cat #103186).
# (§2) Vehicle FP802 n Significance 95% Interval
# Anisocytosis (%) 0 0 4 n.a. -
# Band neutrophils 0 0 4 n.a. -
# Basophils (%) 0 0 4 n.a. -
# Atypical cells 0 0 4 n.a. -
# Table S2. Hematology of SOD1G93A mice treated with vehicle or FP802.
# (§3) FP802 delivered with a subcutaneously implanted ALZET osmotic pump at 40 mg/kg/day for 4 weeks starting at
# References were from Charles
# River Laboratories datasheets for C57BL6 mice. Related to Figure 2.
# [2] = Serum clinical chemistry of treated SOD1G93A mice; format: in vivo, mouse; settings: 40 mg/kg/day s.c. pump
# Protocol: as §1, §2
# Table S3. Clinical chemistry serum parameters of SOD1G93A mice treated with vehicle or FP802.
# as §3
# References were from Charles River Laboratories datasheets for C57BL6 mice. Related to Figure 2.
# [3] = tested on: human iPSC-derived forebrain organoids; assay: NMDA-induced neurotoxicity in human iPSC-derived forebrain organoids; format: cell-based; settings: for pIC50: Homo sapiens, NMDA 300 μM, read-out: IC50, protection against NMDA-induced neurotoxicity
# Protocol: The generation of human-iPSC-derived forebrain organoids was carried out in accordance with the regulations of Heidelberg University. The sporadic ALS iPSC line and the SOD1^G94A ALS iPSC line were purchased from Cedars-Sinai (CS2XWCiALS-nxx and CS2RJViALS-nxx). The healthy control iPSC lines were from Dr. Jochen Utikal (DKFZ, Germany). Forebrain organoids were generated and maintained as described previously.[37]^,[45] Briefly, hiPSCs were dissociated into single cells by Accutase and aggregated in round bottom 96-microwell plates with 5 min centrifugation at 600 rpm. On the second day, hiPSC aggregates were collected and transferred into low attachment 35 mm dishes (24 aggregates/dish) and kept in neural induction medium (DMEM/F12 medium supplemented with 1× penicillin/streptomycin, 1× Normocin, 1× GlutaMAX, 1× N-2 supplement, 2× B27 without vitamin A, 500 nM dorsomorphin, 50 ng/mL recombinant human noggin, 10 μM SB431542, 2 μM IWP-2, 1 μM cyclopamine, and 0.1% β-mercaptoethanol) for 3 days with a daily medium change. Recombinant human FGF (10 ng/mL) was present in neural induction medium from day 4 to day 7 with one medium change on day 5.5. On day 7, neural induction medium was changed to proliferation medium (neurobasal medium supplemented with 1× GlutaMAX, 1× penicillin/streptomycin, 1× Normocin, 1× B27 without vitamin A, 10 ng/mL recombinant human FGF, 10 ng/mL recombinant human EGF, 2 μM IWP-2, and 1 μM cyclopamine) for two weeks with medium change every 2–3 days. In week 4–5, the proliferation medium was changed to differentiation medium (neurobasal medium supplemented with 1× GlutaMAX, 1× penicillin/streptomycin, 1× Normocin, 10 ng/mL recombinant human BDNF, and 10 ng/mL recombinant human NT-3) with medium change every 2–3 days. From week 6, the organoids were kept in the maturation medium (BrainPhys medium supplemented with 1× GlutaMAX, 1× penicillin/streptomycin, 1× Normocin) until week 18–20 when they were used for experiments.
# The analysis of forebrain organoid cell types that undergo NMDA-induced cell death was done using immunostainings of cryosections of 20-week-old forebrain organoids with antibodies against the neuronal markers, NeuN and Myelin transcription factor 1 like (Myt1L) protein, and the astrocyte marker, glial fibrillary acidic protein (GFAP) using the following procedure. All organoids were washed with PBS twice and fixed using 4% paraformaldehyde in PBS for 30 min, followed by 24 h incubation with 30% sucrose solution in PBS. Organoids were snap frozen on dry ice in cryoprotectants and 30 μm cryosections were prepared for staining. […] Cells stained with NeuN, Myt1L, and Hoechst were automatically counted with ImageJ with the particle analyzer with a self-developed macro using the Binary-Watershed function, size exclusion was set at 60 μm^2. NeuN-positive and Myt1L-positive post-mitotic neurons were counted in confocal section z-stacks of whole organoids (5–8 organoids from 2 batches) with ImageJ with the particle analyzer with a self-developed macro using the Binary-Watershed function, size exclusion was set at 60 μm^2 and expressed as a percentage of total Hoechst-stained nuclei. GFAP staining was quantified by measuring the fluorescent signals of z-stacks of confocal sections of whole organoids (5–6 organoids from 2 batches) using ImageJ and expressed as arbitrary units. […]
smiles,measurement,setting,value
CCN(CCN)Cc1cccc(Cl)c1 [FP802],Anisocytosis,[1]; 4 weeks,0%
same,Atypical cells,[1]; 4 weeks,0
same,Band neutrophils,[1]; 4 weeks,0
same,Basophils,[1]; 4 weeks,0%
same,Eosinophils,[1]; 4 weeks,0.25 ± 0.50%
same,Hematocrit,[1]; 4 weeks,50.25 ± 1.71%
same,Hemoglobin,[1]; 4 weeks,14.13 ± 0.68 g/dL
same,Leukocytes,[1]; 4 weeks,3.53 ± 1.32 G/L
same,Lymphocyte,[1]; 4 weeks,71.50 ± 5.57%
same,MCH,[1]; 4 weeks,14.00 ± 0.12 pg
same,MCHC,[1]; 4 weeks,28.50 ± 0.58 g/dL
same,MCV,[1]; 4 weeks,49.75 ± 0.50 fL
same,Monocyte,[1]; 4 weeks,4.25 ± 1.26%
same,Reticulocyte,[1]; 4 weeks,5.10 ± 0.81%
same,Segmented neutrophils,[1]; 4 weeks,22.50 ± 6.40%
same,Thrombocytes,[1]; 4 weeks,1506.00 ± 174.68 G/L
same,adverse effects on the hematology,[1]; 4 weeks,no adverse effects
same,Erythrocyte,[1]; 4 weeks from 15 weeks of age,10.08 ± 0.38 T/L
same,adverse effects on the serum clinical chemistry parameters,[2]; 4 weeks,no adverse effects
same,ALT,"[2]; serum, 4 weeks",32.60 ± 8.30 U/L
same,AST,"[2]; serum, 4 weeks",195.20 ± 147.29 U/L
same,Alkaline phosphatase,"[2]; serum, 4 weeks",69.40 ± 6.84 U/L
same,Calcium,"[2]; serum, 4 weeks",2.35 ± 0.06 mmol/L
same,Chloride,"[2]; serum, 4 weeks",111.20 ± 3.03 mmol/L
same,Cholesterol,"[2]; serum, 4 weeks",2.68 ± 0.60 mmol/L
same,Creatine kinase,"[2]; serum, 4 weeks",1500 ± 1475 U/L
same,Creatinine,"[2]; serum, 4 weeks",9.00 ± 2.16 µmol/L
same,GGT,"[2]; serum, 4 weeks",Not detectable
same,Inorganic phosphate,"[2]; serum, 4 weeks",3.26 ± 0.18 mmol/L
same,LDH,"[2]; serum, 4 weeks",813.3 ± 474.5 U/L
same,Lipase,"[2]; serum, 4 weeks",32.80 ± 4.15 U/L
same,Potassium,"[2]; serum, 4 weeks",9.02 ± 3.83 mmol/L
same,Sodium,"[2]; serum, 4 weeks",149.6 ± 3.9 mmol/L
same,Total protein,"[2]; serum, 4 weeks",50.00 ± 0.71 g/L
same,Triglycerides,"[2]; serum, 4 weeks",0.48 ± 0.13 g/L
same,Urea (BUN),"[2]; serum, 4 weeks",7.58 ± 1.32 mmol/L
same,Albumin,"[2]; serum, 4 weeks from 15 weeks of age",28.00 ± 1.00 g/L
same,pIC50,[3]; SOD1G94A ALS organoids,5.05
same,pIC50,[3]; healthy control-1 organoids,4.59
same,pIC50,[3]; healthy control-2 organoids,4.82
same,pIC50,[3]; sporadic ALS organoids,5.03
same,NMDA-induced death of neurons in ALS patient-derived organoids,"[3]; NMDA 300 μM 24 h, NeuN/Myt1L immunostaining and viability, dose-dependent",effectively blocked

# From PMC10897598, “TwinF interface inhibitor FP802 stops loss of motor neurons and mitigates disease progression in a mouse model of ALS” (Cell Reports Medicine, 2024)
